Results: patent US8097585B2, “Methods of treating inflammation by administration of heme oxygenase-1 and products of heme degradation” (priority 2002, dated 2012)
Counter-ions that a name gives are not always drawn.

Tests used:
recipient splenocytes = test: Mixed lymphocyte culture with splenocytes of treated cardiac allograft recipients; assay type: in vivo, mice
Method: Mixed lymphocyte culture (MLC). Irradiated (25Gy, ^137Cs) DBA/2 splenocytes (5×10^5/well) were co-cultured with responders (5×10^5/well) in a 96 well round bottom plates for 3 days at 37° C., 95% air with 5% CO2. When using cells from cardiac recipients as responders, the co-culture period was 3 days without any further in vitro treatment. ^3H-thymidine (1 μCi/well) was added 16 hours before termination of cell culture, and ^3H-thymidine incorporation was measured.
Induction of HO-1 expression or biliverdin administration suppresses the T cell mediated alloimmune response in vivo. […] Recipient splenocytes harvested 5 days after cardiac transplantation were used as responder cells in an in vitro culture with DBA/2 splenocytes as feeder cells. Proliferation was measured at 72 hours (FIG. 9).

[1] = tested on: DBA/2 islets in diabetic B6AF1 recipients; test: Allogeneic islet transplantation, graft survival and tolerance test; assay type: in vivo, mice
Method: Animals. Male DBA/2, B6AF1 and DBA/1 mice 6-8 week of age (Jackson) are used in the experiments. Mice were kept for 2 weeks at 4 mice/cage and fed normal laboratory chow before using for the experiment.
Treatment protocol. Recipients were rendered diabetic using streptozotocin (STZ, 225 mg/kg). Five days after STZ administration, animals with two consecutive blood glucose levels exceeding 350 mg/dl are used as recipients. Islets (500) are transplanted under the kidney capsule of the recipients.
Reagents. Cobalt protoporphyrin (CoPPIX, Porphyrin Products, Logan, Utah), biliverdin dihydrochloride and bilirubin (ICN Biomedicals Inc., OH) were dissolved in a small amount of 0.2 M NaOH, subsequently adjusted to a pH of 7.4 with 1 M HCl, and diluted in 1×PBS. The stock solutions (CoPPIX=2 mg/ml, biliverdin=3.2 mg/ml, bilirubin=0.5 mg/ml) were aliquoted and kept at −70° C. until used. Light exposure was limited as much as possible.
Induction of HO-1/Administration of biliverdin/bilirubin. When given to the donor, CoPPIX (20 mg/kg) was given 24 hours before islet isolation to induce HO-1 expression. To verify HO-1 expression in different organs after CoPP treatment, tissue samples are collected 24 hours after treatment and snap frozen in liquid nitrogen. Immunohistological analysis of HO-1 expression is performed using an anti-HO-1 antibody. CoPPIX (20 mg/kg) was administrated to the recipient intraperitoneally (i.p.) on day-1, 1, 3, 5 and 7. Biliverdin (50 μmol/kg) or bilirubin (8.5 μmol/kg) was given intraperitoneally to the donor one hour before islet isolation. For the recipient, biliverdin (50 μmol/kg) or bilirubin ([…]) was administered intraperitoneally either daily or twice per day from day-1 until day 13. No further treatment was given afterwards.
Measurement of Glucose level. Glucose levels were tested twice weekly after transplantation. Glucose levels of <200 mg/dl were considered normoglycemic. Grafts were considered rejected when two consecutive glucose levels were >300 mg/dl.
Tolerance test. The first graft was removed from a number of animals that had islets surviving long-term (longer than 100 days) by doing a nephrectomy. Islets syngeneic with the original donor were transplanted under the contralateral kidney capsule without further treatment. If those second transplanted islets also survived longer than 100 days without further treatment, the recipients were considered tolerant.

[2] = tested on: IL-2 receptor α-chain (IL-2Rα, CD25); test: Flow cytometric analysis of IL-2R (CD25) expression; assay type: cell-based, mouse; details: biliverdin 100 μM, anti-CD3 mAb stimulated, 6 and 24 hours
Method: Flow cytometric analysis (IL-2R expression). B6AF1 leukocytes (5×10^5 cells/well) were stimulated with anti-CD3 mAb (1 μg/ml) and cultured in 96 well round bottom plates with or without biliverdin (100 μM). Six and 24 hours after stimulation, cells were harvested, washed, and stained with fluorochrome conjugated isotype control Abs, or specific anti-CD4 and/or anti-CD25 mAbs (all antibodies obtained from BD Pharmingen). Non-stimulated naïve leukocytes were used as a negative control. Following Abs staining, cell samples were analyzed using a FACSort™ flow cytometer and CellQuest™ software (BD Biosciences, Palo Alto, Calif.). Ten thousand CD4+ T cells were acquired for each sample and their CD25 expression was examined. The experiment was repeated 3 times.

[3] = tested on: LPS-induced lung inflammation; test: Endotoxic shock (LPS) model, bronchoalveolar lavage; assay type: in vivo, Sprague-Dawley rats; details: BAL 24 hours after LPS
Method: Treatment Protocol. Endotoxin (lipopolysaccharide/LPS; Sigma; E. coli serotype 0128:B7; 3 mg/kg, i.v.) was administered to male Sprague-Dawley, resulting in an acute non-lethal inflammation. In rats, a sublethal dose of LPS results in a moderate lung inflammation characterized by neutrophil accumulation and protein accumulation in the airspace, both markers of lung inflammation. The pro-inflammatory cytokine TNF-alpha increases very rapidly in the serum, peaking by 60-90 minutes. This is followed by increases in IL-10, a prototypical anti-inflammatory cytokine that peaks 8-12 hr later.
Administration of Biliverdin. Biliverdin (Frontier Scientific: prepared in PBS following solubilization in NaOH) was administered i.p. at […] 17 hours prior to, one hour prior to, and eight hours after LPS administration.
Bronchoalveolar Lavage. A bronchoalveolar lavage (BAL) was performed 24 hours after LPS administration. Serum cytokines were measured using commercially available ELISA kits (R&D Systems Inc.) per the manufacturer's instructions. Total protein was determined via a standard Bradford assay based on a standard curve. […] Total cell count was determined as well as differential analysis of cell type and morphology via Diff-Quik® Fixative (American Scientific Products) staining of a sample of the lavagate.

nitric oxide = test: Serum nitrite/nitrate, SITx with preserved intestine; assay type: in vivo, LEW rats
Method: Detection of Serum Mediators. Serum samples from the recipients transplanted with preserved intestine were taken at 3 and 12 hours after reperfusion and stored at […] until evaluation. Serum IL-6 was determined using a rat enzyme-linked immunoassay (ELISA) kits as described by the manufacturer (R & D Systems, Inc., Cambridge, Mass.). To monitor the production of nitric oxide, the stable end products of NO metabolism, serum nitrite/nitrate levels, were measured 12 hours after engraftment using a commercially available test kit (Cayman, Ann Arbor, Mich.). In this assay system, nitrate is reduced to nitrite using nitrate reductase, and the nitrite concentration of the sample is subsequently measured using the Griess reaction.

In the case of `C=CC1=C(C)c2cc3[n-]c(cc4nc(cc5[n-]c(cc1n2)c(C)c5CCC(=O)[O-])C(CCC(=O)[O-])=C4C)c(C)c3C=C.[Co+2].[H+].[H+]` [CoPP, Cobalt protoporphyrin], the “proliferation of recipient splenocytes” value (recipient splenocytes; harvested 5 days after cardiac transplantation, 72 hours culture with DBA/2 splenocytes, compared to controls) is reported as “inhibited splenocyte proliferation in a significant manner”, the islet allograft survival ([1]; CoPP 20 mg/kg, donor one day before, recipient days −1, 1, 3, 5 and 7) is reported as “prolongation of survival in general but also to some islets surviving long-term” and the islet allograft survival ([1]; CoPP, HO-1 induced only in the donor) is reported as “prolonged survival and function of the islets in the recipient but also to an occasional long-term surviving graft”. The “acceptance of 2nd graft (DBA/2 islets) in tolerance test” value ([1]; all five animals, no further treatment) was over 100 days and the “third party grafts in tolerance test” value ([1]; n=3) was “rejected rapidly”.

In the case of `C=CC1=C(C)/C(=C/C2=NC(=C\c3[nH]c(/C=C4\NC(=O)C(C)=C4C=C)c(C)c3CCC(=O)O)/C(CCC(=O)O)=C2C)NC1=O` [biliverdin, biliverdin dihydrochloride], the “proliferation of recipient splenocytes” value (recipient splenocytes; biliverdin 50 μmol/kg, one dose per day) is reported as “significantly suppressed”, the “proliferation of recipient splenocytes” value (recipient splenocytes; biliverdin 50 μmol/kg, three doses per day) is reported as “significantly suppressed” and the “expression of IL-2Rα (CD25) on splenic CD4+ T cells” value [2] is reported as “did not affect”. The antigen specific tolerance ([1]; long-term survival animals) was “seen in some”, the long-term surviving islets ([1]; treatment of the recipient only) was “significant percentage of long-term surviving islets” and the “neutrophil accumulation in the airspace” value [3] was “reduced”. The “protein accumulation in the airspace” value [3] was “reduced”, the “mean serum nitrite/nitrate (NO) level” value (nitric oxide; BV treated controls (no transplant)) was 18.4 ± 3.2 µM and the “decrease of transplantation-induced serum NO levels” value (nitric oxide; SITx, 12 hours after engraftment) was 53%. For the same compound, the “serum NO level” value (nitric oxide; SITx, 12 hours after engraftment, untreated 34.4±15.2) was 18.2 ± 3.9 µM.
